Experimental data taken from patent publication US8507756B2, “Plant protection” (Plant Bioscience Limited, priority 2007, dated 2013).

How the values were obtained:
[1] = test system: tomato (cv. Carousel); test: Long term growth and yield study after JA seed treatment, tomato; format: in vivo, Solanum lycopersicum
Text: (§1) Data are means of 8 replicate plants+/−standard error of the mean, and the line is a fitted growth response.

[2] = test system: Myzus persicae; test: JA seed treatment, sweet pepper plants challenged with aphids; format: in vivo; settings: sweet pepper cv Biscayne, seed treatment 1.5 mM JA
Procedure: Tomato, pepper, maize and wheat seeds were treated with 3 mM JA or 1.5 mM JA solutions or with 3 mM methyl jasmonate (MeJA) or with deionised water containing 42.8 mM ethanol (control) by full submersion of up to 40 seeds in a Petri dish of solution wrapped in foil for a period of 24 hours at 4° C. in a fridge. A temperature of 4° C. was used both to prevent degradation of the jasmonic acid solutions and to prevent germination of the seeds. Pepper seeds were sown in peat-based compost and grown in unheated glass houses under ambient conditions in the summer. Tomato plants were then challenged with Tetranychus urticae (two-spotted spider mite) which were allowed to feed for 9 days, Manduca sexta (tobacco hornworm) caterpillars which were allowed to feed for 4 days or Myzus persicae (aphid), which were allowed to feed for 10 or 12 days. In each case these organisms were restricted to the plant on which they had originally been placed. Pepper plants were challenged with Myzus persicae (aphid), which were allowed to feed for 2 weeks. […] The effect of Myzus persicae on plants was determined by counting the aphid population on each plant under a dissecting microscope at ×10 magnification. […] Aphids were allowed to feed on the plants for two weeks and the growth of the aphid population over this period was then measured. […]

[3] = Dissolution of JA in water when preparing the solution; format: physicochemical; settings: 250 mg JA; ethanol needed first
Procedure: 6. 1 ml of ethanol was added to the vial of JA using a 1000 μl Gilson pipette, the lid of the vial replaced and the vial shaken to dissolve the JA.

[4] = test system: pepper; test: Long term growth and yield study after JA seed treatment, pepper; format: in vivo; settings: seed treatment 1.5 or 3.0 mM JA, weekly harvests
Text: as §1

[5] = test system: Myzus persicae; test: JA or MeJA seed treatment, tomato plants challenged with aphids; format: in vivo; settings: tomato cv. Carousel, seed treatment 3.0 mM JA, challenged 10 weeks after sowing
Procedure: Tomato, pepper, maize and wheat seeds were treated with 3 mM JA or 1.5 mM JA solutions or with 3 mM methyl jasmonate (MeJA) or with deionised water containing 42.8 mM ethanol (control) by full submersion of up to 40 seeds in a Petri dish of solution wrapped in foil for a period of 24 hours at 4° C. in a fridge. A temperature of 4° C. was used both to prevent degradation of the jasmonic acid solutions and to prevent germination of the seeds. The seeds were then removed from the treatment solution and washed in 1 liter of deionised water for 5 minutes to remove the JA or MeJA coating the outside of the seeds. Tomato seeds were sown in rockwool blocks and grown on peat-based compost in glass houses at 12° C.-28° C. under artificial light on a 16 hour light and 8 hour dark cycle for 48, 56 or 70 days. Tomato plants were then challenged with Tetranychus urticae (two-spotted spider mite) which were allowed to feed for 9 days, Manduca sexta (tobacco hornworm) caterpillars which were allowed to feed for 4 days or Myzus persicae (aphid), which were allowed to feed for 10 or 12 days. In each case these organisms were restricted to the plant on which they had originally been placed. Pepper plants were challenged with Myzus persicae (aphid), which were allowed to feed for 2 weeks. Maize and wheat plants were challenged with Spodoptera […] caterpillars which were allowed to feed for 2 days (maize) or 3 days (wheat). The effect of Myzus persicae on plants was determined by counting the aphid population on each plant under a dissecting microscope at ×10 magnification. Seeds of a UK commercial F1 hybrid tomato variety (cv. Carousel) were treated with 3.0 mM jasmonic acid (JA) and 42.8 mM ethanol in deionised H2O for a period of 24 hours at 4° C. in the dark. […] Aphids were allowed to feed on the plants for twelve days and the aphid population was measured at intervals over this period. […]

[6] = tomato cv. Carousel, JA seed treatment vs control, 8 replicate plants

Fruit dry weight at each weekly harvest [1, 6]: no significant effects | Number of fruit at each weekly harvest [1, 6]: no significant effects | Plant height at each weekly harvest [1, 6]: no significant effects | Vegetative or reproductive growth, or commercial yield ([1]; tomato, seed treatment 1.5 or 3.0 mM JA, weekly harvests): no significant effect | Solubility in water [3]: will not dissolve in water directly | Vegetative or reproductive growth, or commercial yield [4]: no significant effect
Structure (SMILES): CC/C=C\C[C@H]1C(=O)CC[C@@H]1CC(=O)O [JA, jasmonic acid]
Rate of aphid population growth compared with controls ([2]; challenged 8 weeks after seed treatment, 2 weeks feeding): significant (p<0.001) reduction | Aphid population growth rate from fitted growth curves ([2]; control 0.19+/-0.011): 0.11+/−0.016 | Aphid population compared with control plants ([5]; 12 days feeding): significant (p<0.05) reduction | Aphid population compared with control plants, treated seed stored before sowing ([5]; seed dried and stored at 4 C for two months before sowing, 10 days feeding): significant (p<0.05) reduction
